Key:
[1] = target: T1, 5-HT2B receptor (Rattus norvegicus, UniProt P30994); assay: 5-HT2B receptor tissue based functional assay in rat stomach fundus longitudinal muscle; assay type: cell-based; conditions: dextral shift of agonist concentration-response curve, result in words only
T1 construct: Strips of longitudinal muscle were obtained from the stomach fundus of male Sprague Dawley rats; from tissue; host or cells: rat stomach fundus longitudinal muscle strips (male Sprague Dawley)
Description: The following describes an in vitro functional assay characterizing 5-HT receptors (the putative 5-HT2B) in rat stomach fundus longitudinal muscle (Baxter et al., Brit. J. Pharmacol. 1994, 112, 323-331).
Strips of longitudinal muscle were obtained from the stomach fundus of male Sprague Dawley rats. The mucosa was removed and the strips were suspended with a resting tension of 1 g in oxygenated (95% O2 /5% CO2) Tyrode solution at 37°C. The composition of the Tyrode solution was as follows (mM): NaCl 136.9; KCl 2.7; NaH2PO4 0.4; MgCl2 1.0; glucose 5.6; NaHCO3 11.9; CaCl2 1.8. […]
Effects of drugs were monitored by tension transducers and recorded on polygraph recorders. Tissue response was measured as changes in isometric tension (g). The mean potency (EC50) and maximum response were evaluated by standard iterative curve fitting procedures.
Effects of antagonists were determined by measuring dextral shifts to the agonist concentration-response curve after equilibration of the antagonists for at least 1 h. Concentration ratios were measured at half maximal response levels and single concentration antagonist affinities were determined by the equation: KB =(antagonist concentration)/(concentration ratio) [formula]

[2] = target: T2, human H1 receptor (Homo sapiens, UniProt P35367); assay: Human histamine H1 receptor functional assay ([3H]-inositol phosphate formation); assay type: cell-based; parameters: expressed in transfected cells; conditions: transiently transfected HEK-293 cells, histamine-stimulated [3H]-inositol phosphate formation; result in words only
Description: For the measurement of the [^3H]-inositol phosphate formation transiently transfected HEK-293 cells were seeded in 24 well plates and labeled to equilibrium with myo-[2-^3H]-inositol (3 ìCi/ml) for an additional 24 hours in growth medium. The medium was aspirated and cells were washed once with 500 µl HBS-buffer (130 mM NaCl, 900 µM NaH2PO4, 800 µM MgSO4, 5.4 mM KCl, 1.8 mM CaCl2, 25 mM Glucose in 20 mM HEPES pH 7.4). Two min after applying 20 mM Li^+ the cells were stimulated by addition of histamine in HBS-buffer. The incubation was stopped by aspiration off the culture medium and the addition of cold 10 mM formic acid. [^3H]inositol phosphates were isolated by anion exchange chromatography (see Seuwen et al., 1988, EMBO J., 7, 161-168). The pKB value was calculated according to the formula: pKB = log (A'/A - 1) - log [B], where A'/A is the ratio of the agonist concentrations (EC50 in the presence / EC50 in the absence of antagonist) and [B] the concentration of antagonist.

[3] = target: T3, human 5-HT2B receptor (Homo sapiens, UniProt P41595); assay: Cloned human 5-HT2B receptor binding assay ([3H]-5HT); parameters: expressed in transfected cells; host or cells: HEK 293 cells, transiently transfected; membrane preparation; conditions: HEK 293 cells transiently transfected with human 5-HT2B receptor, [3H]5-HT 4 to 5 nM, 37°C 30 min; result in words only
Description: The following describes an in vitro binding assay utilizing cloned 5-HT2B receptors radiolabelled with [^3H]-5HT.
HEK 293 cells transiently transfected with an expression plasmid pXMD1-hu2B encoding the human 5-HT2B receptor (see Schmuck et al., FEBS Lett., 1994, 342, 85-90) were used as described previously (Schmuck et al., Eur. J. Pharmacol., 1996, 8, 959-967). Two days after transfection cells were harvested, pelleted at 500g for 5 min at 4°C, gently resuspended in ice-cold buffer1 (50 mM TRIS pH 7.7, 4 mM CaCl2) and homogenized using a Polytron PT 1200 tissue homogenizer (position 6 for 30 s). Cells were pelleted at 50,000g. 4°C for 10 min, washed with buffer1 and pelleted again. The final pellet was resuspended in incubation buffer (50 mM TRIS pH 7.7, 4 mM CaCl2, 10 µM pargyline and 0.1 % by weight ascorbic acid). The binding assay consisted of 300 µl of membrane suspension (protein concentration = 0.3 to 0.5 mg/ml), 150 µl of competing drug and 50 µl of [^3H]5-HT at a final concentration of 4 to 5 nM. The mixture was incubated at 37°C for 30 min and the assay terminated by rapid filtration and two washing steps with 5 ml of cold 20 mM Tris-HCl pH = 7.5, and 154 mM NaCl over Whatman GFB filters. Filters were counted by liquid scintillation. Non-specific binding was determined in the presence of an excess of 5-HT (100 µM). […] Results are expressed as pKi values. […]

[4] = target: T3, human 5-HT2B receptor; assay: 5-HT2A, 5-HT2B, 5-HT2C receptor binding methods (counter screen for selectivity); parameters: expressed in transfected cells; host or cells: HEK293 cells; conditions: HEK293 cells, [3H]-5HT approximately 0.4 nM, 120 min at 4°C; result in words only
Description: 5-HT2A receptors were labelled with [^3H]ketanserin in human cortex, in HEK293 cells expressing a cloned human 5-HT2A receptor and in HEK293 cells expressing the rat 5-HT2A receptor. For competition binding studies the ligand concentration was approximately 0.1 nM. For saturation binding studies concentrations of radioligand ranged from 0.01 nM to 2.0 nM. Assays were conducted in 0.5 ml of assay buffer (50 mM Tris-HCl, 4 mM calcium chloride, 0.1 % by weight ascorbic acid) (pH 7.4 at 4°C). Non-specifc binding was defined with […] unlabelled ketanserin. After a 60 min incubation at 32°C, membranes were harvested onto filters treated with 0.1 % by weight of polyethylenimine and the bound radioactivity was determined.
Human 5-HT2B receptors were labelled in HEK293 cells as described above. except that the radioligand was [^3H]-5HT and that the assay buffer contained pargyline in a concentration of 10 mM and 0.1 % by weight of ascorbic acid. […]
Competition radioligand binding data was analyzed using a four parameter logistic equation and iterative curve-fitting techniques to obtain estimates of the IC50 and Hill slope. Kd values, determined from saturation binding studies were then used to calculate inhibition dissociation constants (Ki).

[5] = target: T2, human H1 receptor; assay: Cloned human H1, H2, H3 (and H4) receptor binding assay ([3H]-mepyramine for H1); parameters: expressed in transfected cells; host or cells: COS-7 cells, transiently transfected; cell homogenates; conditions: COS-7 cell homogenates, 1 nM [3H]-mepyramine, 30 min at 25°C; result in words only
Description: COS-7 cells were transiently transfected with an expression plasmid pCineohH1, pCineohH2, pCineohH3 and pCineohH4 encoding the human Histamine H1, H2 H3 or H4 receptor, respectively. Transfected cells were harvested after 48 h, homogenized in ice-cold 50 mM Na2/potassium phosphate buffer (pH 7.4) and used for radioligand binding studies. Cell homogenates (40 - 50 µg of protein) were incubated for 30 min at 25°C in 50 mM Na2/potassium phosphate buffer (pH 7.4) in 400 µl with the various concentrations of either [^3H]-mepyramine, [^3H]-thiotidine, [^3H]-R-α-Methylhistamine, and [^3H]-pyramilamine for cells expressing recombinant human H1, H2, H3 and H4 receptors, respectively. The nonspecific binding was defined in the presence of 1 µM mianserin. In displacement studies, cell homogenated were incubated either with 1 nM [^3H]-mepyramine, 15 nM [^3H]-thiotidine, 0.5 nM [^3H]-R-α-Methylhistamine, or 15 nM [^3H]-pyramilamine and increasing concentrations of competing ligands. The incubations were stopped by rapid dilution with 3 ml of ice-cold 50 mM Na2/potassium phosphate buffer (pH 7.4). The bound radioactivity was seperated by filatration through Whatman GF/C filters that had been treated with 0.3 % polyethyleneimine. Filters were washed twice in 3 ml of buffer and radioactivity retained on the filters was measured by liquid scinitllation counting. […]

T2 sequence (P35367 whole entry): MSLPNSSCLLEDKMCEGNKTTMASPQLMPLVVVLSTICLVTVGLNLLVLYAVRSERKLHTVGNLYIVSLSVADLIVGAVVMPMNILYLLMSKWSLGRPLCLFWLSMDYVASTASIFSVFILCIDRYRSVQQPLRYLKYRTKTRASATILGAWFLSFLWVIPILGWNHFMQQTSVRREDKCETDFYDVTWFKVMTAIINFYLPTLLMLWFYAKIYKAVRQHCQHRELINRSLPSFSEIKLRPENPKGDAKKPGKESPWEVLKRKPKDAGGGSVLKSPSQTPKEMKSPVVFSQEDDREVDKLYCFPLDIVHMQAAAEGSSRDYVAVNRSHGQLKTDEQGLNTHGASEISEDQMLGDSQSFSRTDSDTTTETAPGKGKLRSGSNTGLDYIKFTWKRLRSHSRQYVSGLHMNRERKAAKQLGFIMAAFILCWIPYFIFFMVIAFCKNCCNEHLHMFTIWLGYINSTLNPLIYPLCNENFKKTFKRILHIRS
T3 sequence (P41595 whole entry): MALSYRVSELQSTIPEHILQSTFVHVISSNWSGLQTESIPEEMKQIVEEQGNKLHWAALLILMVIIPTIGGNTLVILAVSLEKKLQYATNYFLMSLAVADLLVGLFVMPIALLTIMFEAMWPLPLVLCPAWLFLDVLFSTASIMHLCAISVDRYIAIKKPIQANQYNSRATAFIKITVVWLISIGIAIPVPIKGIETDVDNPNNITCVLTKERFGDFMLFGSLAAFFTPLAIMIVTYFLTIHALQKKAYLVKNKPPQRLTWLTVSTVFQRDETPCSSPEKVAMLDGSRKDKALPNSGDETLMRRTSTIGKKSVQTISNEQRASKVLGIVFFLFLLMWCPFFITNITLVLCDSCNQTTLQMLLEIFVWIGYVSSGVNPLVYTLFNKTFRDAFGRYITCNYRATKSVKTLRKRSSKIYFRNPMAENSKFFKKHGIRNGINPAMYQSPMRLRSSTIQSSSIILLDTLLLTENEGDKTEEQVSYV
T1 sequence (P30994 whole entry): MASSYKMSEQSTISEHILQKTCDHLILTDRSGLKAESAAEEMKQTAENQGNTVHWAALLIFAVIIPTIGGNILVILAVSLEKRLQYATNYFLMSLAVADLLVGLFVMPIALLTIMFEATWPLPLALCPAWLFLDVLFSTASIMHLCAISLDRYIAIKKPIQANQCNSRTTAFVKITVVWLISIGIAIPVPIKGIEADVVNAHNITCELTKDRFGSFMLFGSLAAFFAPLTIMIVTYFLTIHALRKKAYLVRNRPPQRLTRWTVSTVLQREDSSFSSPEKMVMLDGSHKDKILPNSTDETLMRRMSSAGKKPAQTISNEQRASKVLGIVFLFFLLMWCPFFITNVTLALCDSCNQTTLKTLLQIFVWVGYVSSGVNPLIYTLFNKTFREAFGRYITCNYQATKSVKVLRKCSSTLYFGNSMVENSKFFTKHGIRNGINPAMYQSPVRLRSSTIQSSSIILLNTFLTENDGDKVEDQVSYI

Compound: CCOc1ccc2c(c1)Sc1ccccc1C2=C1CCN(C)CC1 [1-methyl-4-(3-ethoxy-9H-thioxanthene-9-ylidene)-piperidine]
- antagonist at the 5-HT2B receptor [1]: found to be an antagonist at the 5-HT2B receptor
- antagonist at the human H1 receptor [2]: found to be an antagonist at the human H1 receptor
- affinity for the 5-HT2B receptor [3]: found to have affinity for the 5-HT2B receptor
- affinity for the 5-HT2B receptor [4]: found to have affinity for the 5-HT2B receptor
- affinity for the human H1 receptor [5]: found to have affinity for the human H1 receptor

Reference: patent EP1270568A1, “1-methyl-4-(3-ethoxy-9h-thioxanthene-ylidene)-piperidine and its use as 5-HT2B and/or H1 antagonist” (Biofrontera Pharmaceuticals AG, priority 2001, dated 2003)
